For orientation: pIC50 means the IC50 on a negative log10 scale, so that one unit is a factor of ten. As usually defined, the IC50 is the point on the concentration scale where inhibition reaches its midpoint.

Molecules are shown by their SMILES. pIC50: −log10 of the molar value. Where two headings read alike, the source gives them in different places. Where a SMILES comes first, the peptide text is derived from it. Bridges are numbered along the chain shown (N, C = ends). [ ]: non-standard residue; d: D form. S5 = C=CCCC[C@](C)(N)C(=O)O

In this test the target is T1, Beta-Catenin (aa 134-668) (Homo sapiens, UniProt P35222).
T1 construct: Beta-Catenin (aa 134-668, 59 KD)
T1 sequence (P35222 134-668): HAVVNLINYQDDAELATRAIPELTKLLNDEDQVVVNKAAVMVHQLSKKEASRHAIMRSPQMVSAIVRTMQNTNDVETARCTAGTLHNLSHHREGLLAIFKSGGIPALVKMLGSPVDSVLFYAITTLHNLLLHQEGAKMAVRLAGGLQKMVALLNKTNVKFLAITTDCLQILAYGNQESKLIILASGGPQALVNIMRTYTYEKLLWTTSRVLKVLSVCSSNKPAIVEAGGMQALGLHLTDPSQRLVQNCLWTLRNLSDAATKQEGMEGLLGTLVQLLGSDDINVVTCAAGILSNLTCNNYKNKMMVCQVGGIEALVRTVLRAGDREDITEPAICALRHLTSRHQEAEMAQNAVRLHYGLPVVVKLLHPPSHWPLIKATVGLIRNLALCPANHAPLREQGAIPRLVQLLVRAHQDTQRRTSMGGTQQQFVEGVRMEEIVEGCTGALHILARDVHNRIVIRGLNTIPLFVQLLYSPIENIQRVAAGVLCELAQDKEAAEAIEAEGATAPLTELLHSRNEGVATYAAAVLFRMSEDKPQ
Nature of the test: TCF/Beta-Catenin competitive fluorescence polarization assay. It is filed as binding. Particulars: competition with FAM-labelled linear probe for 6x His-tagged Beta-Catenin, room temperature, three hours; for pIC50: read-out: Binding Activity: IC50. As for the experimental part:
The following experiments are performed at room temperature unless otherwise noted. First, an assay buffer is prepared composed of 25 mM Tris-Hcl pH 7.5, 200 mM Sodium Chloride, and 5 mM CHAPS. Next, 1M DTT is added to assay buffer to a final concentration of 2 mM. […] Forty μl of this protein stock is added to all but six wells of a 96 well plate (which will serve as the free peptide and Blank). Test competitor peptides are diluted from 1 mM DMSO stocks to 2× working stocks in assay buffer. Further dilutions are made in assay buffer-DMSO as to maintain a constant DMSO concentration in all wells. […] As a benchmark, a linear, non-crosslinked peptide competitor is prepared as above but with a working concentration range of 13-0.7 μM. Fifty μl of the competitor 2× stocks are added to the 40 μl of protein solution previously transferred into the assay 96 well plate. Next, a 10× stock of the fluorescent probe is prepared. The probe is identical to the linear benchmark peptide except for the n-terminal conjugation of a FAM flourophore with Beta-Alanine spacer. A 1 mM DMSO stock of the probe is serially diluted to a final concentration of 25 nM (10×) and 10 μl of this stock is added to all wells except for those that will serve as the blank. The assay plate is stored in the dark and the reaction is allowed to run at room temperature for three hours. The reaction is then read on a Biotek Synergy 2 with the following settings: 100 ms delay, 40 measurements per well, with excitation filters of […], and emission filters of […]. Data is then analyzed in Graphpad Prism.
For orientation: Fluorescence polarisation rises when a labelled molecule tumbles more slowly, as on binding a larger partner.

As for `CC(=O)N[C@@H](CO)C(=O)N[C@@H](C)C(=O)N[C@@H](CCC(=O)O)C(=O)N[C@@H](CCCNC(=N)N)C(=O)N[C@@H](CC(=O)O)C(=O)N[C@@H](CC(C)C)C(=O)N[C@@H](C)C(=O)N[C@@H](CC(=O)O)C(=O)N[C@H](C(=O)N[C@@H](CCCCN)C(=O)N[C@@]1(C)CCCC=CCCC[C@@](C)(C(=O)N[C@@H](CCC(=O)O)C(=O)N[C@@H](CO)C(=O)N[C@@H](CCC(=O)O)C(=O)N[C@@H](CCCCN)C(=O)N[C@@H](CCCNC(=N)N)C(N)=O)NC(=O)[C@H](C(C)C)NC(=O)[C@H](CC(C)C)NC(=O)[C@H](CO)NC1=O)C(C)C` [SP12, Ac-SAERDLADVK$SLV$ESEKR-NH2] (Ac-SAERDLADVK[S5]SLV[S5]ESEKR-NH2; staple 11-15), the pIC50 is 4.07.

On to `CC[C@H](C)[C@H](NC(=O)[C@H](CC(C)C)NC(=O)[C@H](CCC(=O)O)NC(=O)[C@H](CC(=O)O)NC(=O)[C@H](CC(N)=O)NC(=O)[C@H](C)NC(=O)CNC(=O)[C@H](CC(C)C)NC(C)=O)C(=O)N[C@@H](CO)C(=O)N[C@@H](Cc1ccccc1)C(=O)N[C@@H](CCCCN)C(=O)N[C@@]1(C)CCCC=CCCC[C@@](C)(C(=O)N[C@@H](CCC(=O)O)C(=O)N[C@@H](CCC(=O)O)C(=O)N[C@@H](CCCCN)C(=O)N[C@@H](CO)C(=O)N[C@@H](CO)C(=O)N[C@@H](CC(N)=O)C(=O)N[C@@H](CC(N)=O)C(=O)N[C@@H](CO)C(=O)N[C@@H](CO)C(=O)N[C@@H](C)C(=O)N[C@@H](CCC(=O)O)C(=O)N[C@@H](CCCNC(=N)N)C(=O)N[C@@H](CC(=O)O)C(=O)N[C@@H](CC(C)C)C(=O)N[C@@H](C)C(=O)N[C@@H](CC(=O)O)C(=O)N[C@H](C(=O)N[C@@H](CCCCN)C(=O)N[C@@H](CO)C(=O)N[C@@H](CO)C(=O)N[C@@H](CC(C)C)C(=O)N[C@H](C(N)=O)C(C)C)C(C)C)NC(=O)[C@H](CCC(=O)O)NC(=O)CNC(=O)[C@H](CCC(=O)O)NC1=O` [SP27] (Ac-LGANDELISFK[S5]EGE[S5]EEKSSNNSSAERDLADVKSSLV-NH2; staple 12-16), for which, under “Binding Activity: IC50 (nM)”, the IC50 amounted to 158 nM.

On to `CC[C@H](C)[C@H](NC(=O)[C@H](CC(C)C)NC(=O)[C@H](CCC(=O)O)NC(=O)[C@H](CC(=O)O)NC(=O)[C@H](CC(N)=O)NC(=O)[C@H](C)NC(=O)CNC(=O)[C@H](CC(C)C)NC(C)=O)C(=O)N[C@@H](CO)C(=O)N[C@@H](Cc1ccccc1)C(=O)N[C@@H](CCCCN)C(=O)N[C@@H](CC(=O)O)C(=O)N[C@@H](CCC(=O)O)C(=O)NCC(=O)N[C@@]1(C)CCCC=CCCC[C@@](C)(C(=O)N[C@@H](CO)C(=O)N[C@@H](CO)C(=O)N[C@@H](CC(N)=O)C(=O)N[C@@H](CC(N)=O)C(=O)N[C@@H](CO)C(=O)N[C@@H](CO)C(=O)N[C@@H](C)C(=O)N[C@@H](CCC(=O)O)C(=O)N[C@@H](CCCNC(=N)N)C(=O)N[C@@H](CC(=O)O)C(=O)N[C@@H](CC(C)C)C(=O)N[C@@H](C)C(=O)N[C@@H](CC(=O)O)C(=O)N[C@H](C(=O)N[C@@H](CCCCN)C(=O)N[C@@H](CO)C(=O)N[C@@H](CO)C(=O)N[C@@H](CC(C)C)C(=O)N[C@H](C(N)=O)C(C)C)C(C)C)NC(=O)[C@H](CCC(=O)O)NC(=O)[C@H](CCC(=O)O)NC(=O)[C@H](CCC(N)=O)NC1=O` [SP28, Ac-LGANDELISFKDEG$QEE$SSNNSSAERDLADVKSSLV-NH2] (Ac-LGANDELISFKDEG[S5]QEE[S5]SSNNSSAERDLADVKSSLV-NH2; staple 15-19), for which the pIC50 was 6.80.
